Experimental data: patent US20250034216A1, “STEREOSELECTIVE COVALENT LIGANDS FOR ONCOGENIC AND IMMUNOLOGICAL PROTEINS” (The Scripps Research Institute, priority 2021, published 2025)
Each block holds one molecule with its values, some of them ahead of it.

What was measured:
Assay in all cases: IA-DTB cysteine engagement
Format in all cases: binding
SYNE2_C2993 = target: T1, SYNE2_C2993 (Homo sapiens, UniProt Q8WXH0); conditions: 22Rv1 cells, 20 μM probe, 1 h, relative to DMSO
T1 construct: endogenous in cells; host or cells: 22Rv1
How it was run: (§1)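 Cells were treated in situ with electrophilic probes, then lysed, and the lysates (2 mg/mL protein) were labeled with IA-DTB for 1 h at ambient temperature. After reduction, alkylation and trypsin digestion, labeled peptides were streptavidin-enriched, TMT-labeled and fractionated. Engagement ratios are probe vs DMSO reporter intensities, averaged across replicates.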

GRIN2C_C1105 = target: T2, GRIN2C_C1105 (Homo sapiens, UniProt Q14957); conditions: 22Rv1 cells, 20 μM probe, 1 h, relative to DMSO
T2 construct: endogenous in cells; host or cells: 22Rv1
T2 sequence (Q14957 20-1233, other chains not shown): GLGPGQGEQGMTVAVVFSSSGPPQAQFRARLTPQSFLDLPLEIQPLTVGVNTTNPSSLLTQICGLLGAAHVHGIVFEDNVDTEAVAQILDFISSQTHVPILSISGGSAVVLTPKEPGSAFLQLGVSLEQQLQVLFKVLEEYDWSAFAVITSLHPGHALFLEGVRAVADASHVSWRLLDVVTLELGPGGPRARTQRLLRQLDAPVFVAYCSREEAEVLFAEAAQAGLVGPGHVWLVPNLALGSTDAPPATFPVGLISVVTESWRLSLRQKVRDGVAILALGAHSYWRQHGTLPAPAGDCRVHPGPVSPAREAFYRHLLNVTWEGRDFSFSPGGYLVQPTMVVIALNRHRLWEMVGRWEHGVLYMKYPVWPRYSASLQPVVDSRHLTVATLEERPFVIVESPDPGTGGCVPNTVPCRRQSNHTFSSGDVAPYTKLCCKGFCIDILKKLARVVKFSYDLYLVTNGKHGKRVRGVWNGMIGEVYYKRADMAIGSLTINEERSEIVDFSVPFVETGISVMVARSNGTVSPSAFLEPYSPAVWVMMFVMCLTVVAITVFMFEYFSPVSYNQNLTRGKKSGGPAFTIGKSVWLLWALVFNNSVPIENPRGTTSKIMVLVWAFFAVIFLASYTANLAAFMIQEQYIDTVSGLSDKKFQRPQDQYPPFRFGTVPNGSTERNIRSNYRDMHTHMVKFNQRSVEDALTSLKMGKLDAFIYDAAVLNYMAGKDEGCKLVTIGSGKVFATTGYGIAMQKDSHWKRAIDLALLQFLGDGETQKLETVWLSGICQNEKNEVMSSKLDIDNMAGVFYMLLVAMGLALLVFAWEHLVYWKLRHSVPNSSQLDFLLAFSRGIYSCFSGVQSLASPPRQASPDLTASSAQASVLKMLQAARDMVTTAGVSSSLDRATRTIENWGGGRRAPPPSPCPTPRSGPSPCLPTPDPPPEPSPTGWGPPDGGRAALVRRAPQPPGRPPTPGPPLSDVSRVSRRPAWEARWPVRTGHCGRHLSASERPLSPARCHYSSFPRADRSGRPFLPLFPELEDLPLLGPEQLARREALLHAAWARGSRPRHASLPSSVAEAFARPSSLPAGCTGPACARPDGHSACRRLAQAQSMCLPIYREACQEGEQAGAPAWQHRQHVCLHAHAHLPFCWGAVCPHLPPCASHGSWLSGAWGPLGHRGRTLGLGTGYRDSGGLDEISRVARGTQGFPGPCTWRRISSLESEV
How it was run: as §1

COX6B1_C54 = target: T3, COX6B1_C54 (Homo sapiens, UniProt P14854); conditions: 22Rv1 cells, 20 μM probe, 1 h, relative to DMSO
T3 construct: endogenous in cells; host or cells: 22Rv1
T3 sequence (P14854 whole entry): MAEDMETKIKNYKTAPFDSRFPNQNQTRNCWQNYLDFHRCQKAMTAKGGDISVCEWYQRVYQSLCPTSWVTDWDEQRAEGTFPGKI
How it was run: as §1

PRXL2A_C85 = target: T4, PRXL2A_C85 (Homo sapiens, UniProt Q9BRX8); conditions: 22Rv1 cells, relative to DMSO; for % engagement PRXL2A_C85: 20 μM probe, 1 h; for % engagement PRXL2A_85: 5 μM probe, 1 h (FIG. 5B)
T4 construct: endogenous in cells; host or cells: 22Rv1
T4 sequence (Q9BRX8 1-229): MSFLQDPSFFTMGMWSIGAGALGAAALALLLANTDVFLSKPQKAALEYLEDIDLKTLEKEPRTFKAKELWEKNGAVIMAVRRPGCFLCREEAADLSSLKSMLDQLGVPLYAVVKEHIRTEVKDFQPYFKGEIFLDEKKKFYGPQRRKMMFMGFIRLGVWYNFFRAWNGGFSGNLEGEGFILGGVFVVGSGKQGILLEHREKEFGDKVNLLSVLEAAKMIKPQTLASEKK
How it was run: as §1

BCKDK_C118 = target: T5, BCKDK_C118 (Homo sapiens, UniProt O14874); conditions: 22Rv1 cells, 20 μM probe, 1 h, relative to DMSO
T5 construct: endogenous in cells; host or cells: 22Rv1
How it was run: as §1

ANGEL1_C27 = target: T6, ANGEL1_C27 (Homo sapiens, UniProt Q9UNK9); conditions: 22Rv1 cells, 20 μM probe, 1 h, relative to DMSO
T6 construct: endogenous in cells; host or cells: 22Rv1
T6 sequence (Q9UNK9 1-670): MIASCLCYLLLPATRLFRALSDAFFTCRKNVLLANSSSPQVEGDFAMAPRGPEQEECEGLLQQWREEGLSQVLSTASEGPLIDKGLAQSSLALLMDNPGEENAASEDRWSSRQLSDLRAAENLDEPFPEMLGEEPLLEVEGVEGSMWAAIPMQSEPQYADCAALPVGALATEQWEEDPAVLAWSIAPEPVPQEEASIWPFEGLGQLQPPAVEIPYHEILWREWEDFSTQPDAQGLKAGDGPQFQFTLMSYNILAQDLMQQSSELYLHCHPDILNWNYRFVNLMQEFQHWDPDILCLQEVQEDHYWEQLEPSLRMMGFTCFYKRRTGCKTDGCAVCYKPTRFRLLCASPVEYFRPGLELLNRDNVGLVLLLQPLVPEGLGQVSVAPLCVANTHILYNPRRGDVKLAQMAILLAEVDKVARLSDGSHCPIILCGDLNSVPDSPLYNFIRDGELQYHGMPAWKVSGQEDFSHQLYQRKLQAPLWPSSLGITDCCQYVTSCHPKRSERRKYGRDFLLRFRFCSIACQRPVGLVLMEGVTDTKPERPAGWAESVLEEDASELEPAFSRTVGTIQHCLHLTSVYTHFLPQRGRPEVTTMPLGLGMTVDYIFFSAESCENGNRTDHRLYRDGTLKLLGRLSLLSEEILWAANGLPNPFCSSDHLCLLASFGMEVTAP
How it was run: as §1

Compound: C=CC(=O)N1C[C@@H](c2ccc(Br)cc2)[C@H]1C(=O)Nc1cccc2cccnc12 [MY-1A, (2S,3R)-1-acryloyl-3-(4-bromophenyl)-N-(quinolin-8-yl)azetidine-2-carboxamide]
- % engagement SYNE2_C2993 (SYNE2_C2993): −20%
- % engagement GRIN2C_C1105 (GRIN2C_C1105): 78.5%
- % engagement COX6B1_C54 (COX6B1_C54): 66.5%
- % engagement PRXL2A_C85 (PRXL2A_C85): 92.5%
- % engagement BCKDK_C118 (BCKDK_C118): 55.5%
- % engagement ANGEL1_C27 (ANGEL1_C27): 63%

Compound: C=CC(=O)N1C[C@H](c2ccc(Br)cc2)[C@@H]1C(=O)Nc1cccc2cccnc12 [MY-1B, (2R,3S)-1-acryloyl-3-(4-bromophenyl)-N-(quinolin-8-yl)azetidine-2-carboxamide]
- % engagement SYNE2_C2993 (SYNE2_C2993): 76.5%
- % engagement GRIN2C_C1105 (GRIN2C_C1105): 40.5%
- % engagement COX6B1_C54 (COX6B1_C54): 56%
- % engagement PRXL2A_85 (PRXL2A_C85): 91.48%
- % engagement PRXL2A_C85 (PRXL2A_C85): 98.75%
- % engagement BCKDK_C118 (BCKDK_C118): 57.75%
- % engagement ANGEL1_C27 (ANGEL1_C27): 66.5%

Further lines, results first:

- % engagement SYNE2_C2993 (SYNE2_C2993): 26.5%
- % engagement GRIN2C_C1105 (GRIN2C_C1105): 85%
- % engagement COX6B1_C54 (COX6B1_C54): 33.5%
- % engagement PRXL2A_C85 (PRXL2A_C85): 97.5%
- % engagement BCKDK_C118 (BCKDK_C118): 43%
- % engagement ANGEL1_C27 (ANGEL1_C27): 45.5%
Compound: C=CC(=O)N1C[C@H](c2ccc(Br)cc2)[C@H]1C(=O)Nc1cccc2cccnc12 [MY-3A, (2S,3S)-1-acryloyl-3-(4-bromophenyl)-N-(quinolin-8-yl)azetidine-2-carboxamide]

- % engagement SYNE2_C2993 (SYNE2_C2993): 54.5%
- % engagement GRIN2C_C1105 (GRIN2C_C1105): 64.5%
- % engagement COX6B1_C54 (COX6B1_C54): 36.5%
- % engagement PRXL2A_C85 (PRXL2A_C85): 98.5%
- % engagement BCKDK_C118 (BCKDK_C118): 78.5%
- % engagement ANGEL1_C27 (ANGEL1_C27): 54.5%
Compound: C=CC(=O)N1C[C@H](c2ccc(Br)cc2)[C@H]1C(=O)Nc1cccc2cccnc12 [MY-3B, (2S,3S)-1-acryloyl-3-(4-bromophenyl)-N-(quinolin-8-yl)azetidine-2-carboxamide]

- % engagement PRXL2A_85 (PRXL2A_C85): 86.23%
Compound: CC#CC(=O)N1C[C@H](c2ccc(Br)cc2)[C@@H]1C(=O)Nc1cccc2cccnc12 [MY-45B, (2R,3S)-3-(4-bromophenyl)-1-(but-2-ynoyl)-N-(quinolin-8-yl)azetidine-2-carboxamide]
